From ChEMBL document CHEMBL5137068, “Discovery of Hexahydrofuro[3,2-b]furans as New Kinase-Selective and Orally Bioavailable JAK3 Inhibitors for the Treatment of Leukemia Harboring a JAK3 Activating Mutant” (J Med Chem, 2022)
Calls of active or inactive are those of the source. No cut-off for these calls is given here.

Key:
[1] = Cmax in 12 hr fasted SPF Sprague-Dawley rat at 5 mg/kg, iv upon 2 hrs fasting post-administration measured upto 24 hrs; type: ADME, organism-based; parameters: dose 5 mg/kg, time < 24 hrs, route iv; details: in vivo
[2] = molecular target: Receptor-type tyrosine-protein kinase FLT3 (Homo sapiens) (UniProt P36888); test: Inhibition of human FLT3 at 0.5 uM relative to control
Sequence of Receptor-type tyrosine-protein kinase FLT3 (Homo sapiens) (P36888 whole entry): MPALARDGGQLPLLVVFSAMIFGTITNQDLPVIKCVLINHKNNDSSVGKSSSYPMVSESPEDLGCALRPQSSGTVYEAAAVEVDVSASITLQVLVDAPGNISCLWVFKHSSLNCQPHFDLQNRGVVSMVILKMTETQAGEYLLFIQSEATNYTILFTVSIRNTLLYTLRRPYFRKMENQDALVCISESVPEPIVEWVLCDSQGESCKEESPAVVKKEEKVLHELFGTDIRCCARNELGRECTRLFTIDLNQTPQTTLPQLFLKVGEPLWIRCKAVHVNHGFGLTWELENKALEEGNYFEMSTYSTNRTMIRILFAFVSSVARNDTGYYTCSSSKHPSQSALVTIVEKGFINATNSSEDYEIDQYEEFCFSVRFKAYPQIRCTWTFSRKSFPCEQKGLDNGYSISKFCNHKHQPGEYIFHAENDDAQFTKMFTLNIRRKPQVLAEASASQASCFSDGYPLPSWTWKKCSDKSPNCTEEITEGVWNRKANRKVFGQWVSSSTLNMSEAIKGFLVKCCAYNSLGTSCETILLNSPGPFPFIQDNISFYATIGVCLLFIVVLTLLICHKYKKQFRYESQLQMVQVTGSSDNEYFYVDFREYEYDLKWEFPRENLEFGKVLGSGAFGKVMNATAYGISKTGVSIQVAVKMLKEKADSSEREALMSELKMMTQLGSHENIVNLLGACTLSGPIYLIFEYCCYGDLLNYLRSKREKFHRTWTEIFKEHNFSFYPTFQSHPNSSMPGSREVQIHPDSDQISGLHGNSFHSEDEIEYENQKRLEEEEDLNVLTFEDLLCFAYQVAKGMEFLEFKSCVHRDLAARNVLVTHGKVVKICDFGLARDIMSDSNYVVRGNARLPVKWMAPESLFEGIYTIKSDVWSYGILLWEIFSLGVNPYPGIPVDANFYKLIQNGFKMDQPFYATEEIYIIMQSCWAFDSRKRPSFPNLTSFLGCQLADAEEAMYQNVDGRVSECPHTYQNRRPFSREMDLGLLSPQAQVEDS

[3] = molecular target: Non-receptor tyrosine-protein kinase TYK2 (Homo sapiens, UniProt P29597); test: Inhibition of human TYK2 at 0.5 uM relative to control
Sequence of Non-receptor tyrosine-protein kinase TYK2 (P29597 whole entry): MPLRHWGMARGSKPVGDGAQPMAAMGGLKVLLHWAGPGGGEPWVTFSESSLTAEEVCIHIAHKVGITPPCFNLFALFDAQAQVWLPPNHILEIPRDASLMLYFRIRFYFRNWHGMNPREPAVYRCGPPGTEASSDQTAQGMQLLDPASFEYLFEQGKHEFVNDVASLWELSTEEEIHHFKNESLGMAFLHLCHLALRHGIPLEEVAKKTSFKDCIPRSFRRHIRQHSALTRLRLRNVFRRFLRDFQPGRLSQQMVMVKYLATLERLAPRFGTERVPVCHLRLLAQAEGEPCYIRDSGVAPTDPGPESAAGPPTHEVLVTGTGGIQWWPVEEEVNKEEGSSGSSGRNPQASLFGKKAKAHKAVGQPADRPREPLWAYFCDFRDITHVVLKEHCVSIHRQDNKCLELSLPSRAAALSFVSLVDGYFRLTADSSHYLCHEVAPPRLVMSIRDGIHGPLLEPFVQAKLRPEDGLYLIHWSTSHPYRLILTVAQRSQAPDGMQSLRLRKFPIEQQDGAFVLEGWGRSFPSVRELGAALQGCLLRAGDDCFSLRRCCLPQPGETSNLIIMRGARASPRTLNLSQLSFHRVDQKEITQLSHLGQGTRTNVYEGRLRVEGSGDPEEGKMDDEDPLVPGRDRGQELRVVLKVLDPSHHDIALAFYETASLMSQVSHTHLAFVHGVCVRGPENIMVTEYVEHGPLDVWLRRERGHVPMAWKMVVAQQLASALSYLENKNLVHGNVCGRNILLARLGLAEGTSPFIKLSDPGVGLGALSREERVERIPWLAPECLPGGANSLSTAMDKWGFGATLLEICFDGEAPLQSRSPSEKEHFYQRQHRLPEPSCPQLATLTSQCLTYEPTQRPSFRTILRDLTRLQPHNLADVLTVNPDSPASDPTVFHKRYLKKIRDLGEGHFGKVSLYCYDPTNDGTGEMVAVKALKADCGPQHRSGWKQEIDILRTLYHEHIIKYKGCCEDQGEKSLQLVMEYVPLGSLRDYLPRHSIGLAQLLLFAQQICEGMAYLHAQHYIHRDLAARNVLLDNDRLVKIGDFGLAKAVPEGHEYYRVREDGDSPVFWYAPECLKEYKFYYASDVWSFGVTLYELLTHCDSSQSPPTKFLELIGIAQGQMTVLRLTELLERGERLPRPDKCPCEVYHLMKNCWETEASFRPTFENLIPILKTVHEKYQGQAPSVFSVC

[4] = molecular target: Tyrosine-protein kinase ITK/TSK (Homo sapiens) (UniProt Q08881); test: Inhibition of ITK (unknown origin) at 0.5 uM relative to control
Sequence of Tyrosine-protein kinase ITK/TSK (Homo sapiens) (Q08881 whole entry): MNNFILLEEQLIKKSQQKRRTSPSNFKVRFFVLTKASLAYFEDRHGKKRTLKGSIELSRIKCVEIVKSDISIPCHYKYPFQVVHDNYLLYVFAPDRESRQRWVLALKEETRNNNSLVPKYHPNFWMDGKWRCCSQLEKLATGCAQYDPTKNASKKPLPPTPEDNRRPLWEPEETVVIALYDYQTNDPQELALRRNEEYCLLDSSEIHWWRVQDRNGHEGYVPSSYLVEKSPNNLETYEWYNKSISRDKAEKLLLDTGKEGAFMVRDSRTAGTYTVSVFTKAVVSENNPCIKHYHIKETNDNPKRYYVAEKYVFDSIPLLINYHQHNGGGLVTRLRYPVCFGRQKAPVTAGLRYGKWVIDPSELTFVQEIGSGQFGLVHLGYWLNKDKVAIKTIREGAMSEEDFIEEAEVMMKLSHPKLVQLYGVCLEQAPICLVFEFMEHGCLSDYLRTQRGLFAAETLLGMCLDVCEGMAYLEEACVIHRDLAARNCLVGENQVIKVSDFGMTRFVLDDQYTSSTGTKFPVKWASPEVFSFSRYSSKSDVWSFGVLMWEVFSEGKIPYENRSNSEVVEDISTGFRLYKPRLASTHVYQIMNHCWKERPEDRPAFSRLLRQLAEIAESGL

[5] = molecular target: [Pyruvate dehydrogenase (acetyl-transferring)] kinase isozyme 1, mitochondrial (Homo sapiens) (UniProt Q15118); test: Inhibition of PDK1 (unknown origin) at 0.5 uM relative to control
[6] = molecular target: Receptor tyrosine-protein kinase erbB-2 (Homo sapiens) (UniProt P04626); test: Inhibition of HER2 (unknown origin) at 0.5 uM relative to control
Sequence of Receptor tyrosine-protein kinase erbB-2 (Homo sapiens) (P04626 whole entry): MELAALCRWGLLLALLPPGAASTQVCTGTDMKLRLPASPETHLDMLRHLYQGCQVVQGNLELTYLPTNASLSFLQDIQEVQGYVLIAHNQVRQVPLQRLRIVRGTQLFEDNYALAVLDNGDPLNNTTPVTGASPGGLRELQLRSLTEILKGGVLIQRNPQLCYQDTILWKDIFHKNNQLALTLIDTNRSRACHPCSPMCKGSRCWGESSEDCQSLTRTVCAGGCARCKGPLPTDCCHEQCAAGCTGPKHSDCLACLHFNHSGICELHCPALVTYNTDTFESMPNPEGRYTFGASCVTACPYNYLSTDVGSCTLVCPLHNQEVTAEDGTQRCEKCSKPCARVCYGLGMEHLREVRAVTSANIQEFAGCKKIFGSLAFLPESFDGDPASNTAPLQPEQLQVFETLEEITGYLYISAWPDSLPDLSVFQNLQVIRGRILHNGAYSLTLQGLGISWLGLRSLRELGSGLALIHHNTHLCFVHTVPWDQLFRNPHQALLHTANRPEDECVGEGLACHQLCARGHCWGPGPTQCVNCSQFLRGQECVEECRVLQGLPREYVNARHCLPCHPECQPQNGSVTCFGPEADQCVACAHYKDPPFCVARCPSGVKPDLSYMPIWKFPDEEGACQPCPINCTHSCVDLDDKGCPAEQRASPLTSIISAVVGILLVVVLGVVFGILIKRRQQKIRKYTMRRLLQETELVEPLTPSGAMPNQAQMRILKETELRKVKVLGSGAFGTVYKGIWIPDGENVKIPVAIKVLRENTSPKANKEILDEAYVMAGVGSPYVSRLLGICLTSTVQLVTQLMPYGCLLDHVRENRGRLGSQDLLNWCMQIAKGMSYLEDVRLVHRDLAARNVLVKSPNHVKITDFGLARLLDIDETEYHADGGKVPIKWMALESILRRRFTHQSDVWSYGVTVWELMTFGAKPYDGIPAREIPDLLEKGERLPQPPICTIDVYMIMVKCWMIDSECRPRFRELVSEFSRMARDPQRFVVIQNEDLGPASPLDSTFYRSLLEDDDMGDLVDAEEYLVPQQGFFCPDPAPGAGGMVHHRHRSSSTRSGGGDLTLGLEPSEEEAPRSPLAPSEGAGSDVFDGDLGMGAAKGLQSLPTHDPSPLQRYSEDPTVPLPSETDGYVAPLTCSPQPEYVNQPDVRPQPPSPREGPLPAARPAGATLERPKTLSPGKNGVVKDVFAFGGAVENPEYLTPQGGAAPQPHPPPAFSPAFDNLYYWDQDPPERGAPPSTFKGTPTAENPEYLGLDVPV

[7] = molecular target: T1, Signal transducer and activator of transcription 5A (Homo sapiens) (UniProt P42229); test: Inhibition of STAT5 in human U-937 cells assessed as decrease in P-STAT5 phosphorylation at 200 uM pretreated for 10 hrs followed by compound washout by immunoblotting analysis; type: cell-based
T1 sequence (whole entry): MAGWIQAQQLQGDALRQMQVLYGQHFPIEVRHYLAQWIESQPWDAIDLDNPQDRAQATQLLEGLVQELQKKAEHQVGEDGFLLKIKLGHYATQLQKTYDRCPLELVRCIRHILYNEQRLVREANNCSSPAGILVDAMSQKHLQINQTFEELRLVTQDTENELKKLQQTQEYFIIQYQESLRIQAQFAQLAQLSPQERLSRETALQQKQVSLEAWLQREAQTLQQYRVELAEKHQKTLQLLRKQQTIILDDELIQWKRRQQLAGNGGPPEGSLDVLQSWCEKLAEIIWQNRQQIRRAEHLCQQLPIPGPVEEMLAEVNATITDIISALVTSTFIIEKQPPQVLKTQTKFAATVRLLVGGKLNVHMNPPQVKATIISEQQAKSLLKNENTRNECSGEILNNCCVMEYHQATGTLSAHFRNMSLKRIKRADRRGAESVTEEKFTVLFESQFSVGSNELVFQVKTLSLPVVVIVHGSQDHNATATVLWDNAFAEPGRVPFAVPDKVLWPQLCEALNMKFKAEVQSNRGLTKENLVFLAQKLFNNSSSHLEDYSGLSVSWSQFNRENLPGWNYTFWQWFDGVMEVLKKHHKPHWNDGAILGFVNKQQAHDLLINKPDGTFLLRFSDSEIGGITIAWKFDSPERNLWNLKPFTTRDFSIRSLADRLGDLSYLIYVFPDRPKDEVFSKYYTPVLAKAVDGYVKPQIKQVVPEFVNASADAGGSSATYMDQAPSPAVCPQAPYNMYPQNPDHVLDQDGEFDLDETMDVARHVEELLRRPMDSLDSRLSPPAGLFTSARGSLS

[8] = molecular target: Signal transducer and activator of transcription 3 (Homo sapiens) (UniProt P40763); test: Inhibition of STAT3 activation in human U-937 cells assessed as decrease in P-STAT3 at 100 uM by Western blot analysis; type: cell-based; details: time 0-24 hrs, TDE = time-dependent effect
Sequence of Signal transducer and activator of transcription 3 (Homo sapiens) (P40763 whole entry): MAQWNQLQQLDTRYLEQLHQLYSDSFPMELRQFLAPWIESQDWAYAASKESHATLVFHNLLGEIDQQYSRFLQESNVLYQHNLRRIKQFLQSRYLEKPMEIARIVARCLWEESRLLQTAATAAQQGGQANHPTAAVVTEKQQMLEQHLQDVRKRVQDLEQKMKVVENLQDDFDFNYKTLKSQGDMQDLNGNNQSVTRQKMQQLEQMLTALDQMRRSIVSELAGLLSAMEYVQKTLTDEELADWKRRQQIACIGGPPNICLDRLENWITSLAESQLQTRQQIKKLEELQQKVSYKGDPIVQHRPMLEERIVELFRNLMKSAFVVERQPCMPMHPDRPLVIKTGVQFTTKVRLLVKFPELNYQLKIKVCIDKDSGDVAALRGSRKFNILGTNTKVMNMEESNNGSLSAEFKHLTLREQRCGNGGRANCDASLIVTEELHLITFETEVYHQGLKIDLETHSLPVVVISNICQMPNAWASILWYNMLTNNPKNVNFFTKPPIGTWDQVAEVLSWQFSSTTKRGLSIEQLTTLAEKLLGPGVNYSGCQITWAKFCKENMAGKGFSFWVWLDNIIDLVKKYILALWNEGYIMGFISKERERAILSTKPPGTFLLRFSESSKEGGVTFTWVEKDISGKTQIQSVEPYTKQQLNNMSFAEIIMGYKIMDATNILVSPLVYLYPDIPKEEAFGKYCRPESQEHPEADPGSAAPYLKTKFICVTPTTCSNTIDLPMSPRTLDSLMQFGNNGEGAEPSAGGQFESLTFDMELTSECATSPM

[9] = molecular target: T1, Signal transducer and activator of transcription 5A (Homo sapiens); test: Inhibition of STAT5 activation in human U-937 cells assessed as decrease in P-STAT5 at 100 uM by Western blot analysis; type: cell-based; details: time 0-24 hrs, TDE = time-dependent effect
[10] = molecular target: T1, Signal transducer and activator of transcription 5A (Homo sapiens); test: Inhibition of STAT5 activation in human U-937 cells assessed as decrease in P-STAT5 incubated for 0 to 24 hrs by Western blot analysis; type: cell-based; details: time 0-24 hrs, DDE = dose-dependent effect
U-937 [11] = test: Induction of cell cycle arrest in human U-937 cells assessed as accumulation at G0/G1 phase at 33 nM measured after 24 hrs by propidium iodide staining based flow cytometric analysis (reference value: 62.95%); type: functional
U-937 [12] = test: Induction of cell cycle arrest in human U-937 cells assessed as accumulation at S phase at 33 nM measured after 24 hrs by propidium iodide staining based flow cytometric analysis (reference value: 15.35%); type: functional
U-937 [13] = test: Induction of cell cycle arrest in human U-937 cells assessed as accumulation at G2/M phase at 33 nM measured after 24 hrs by propidium iodide staining based flow cytometric analysis (reference value: 21.41%); type: functional
U-937 [14] = test: Induction of cell cycle arrest in human U-937 cells assessed as accumulation at G2/M phase at 300 nM measured after 24 hrs by propidium iodide staining based flow cytometric analysis (reference value: 21.41%); type: functional
[15] = molecular target: Tyrosine-protein kinase ITK/TSK (Homo sapiens) (UniProt Q08881); test: Inhibition of ITK (unknown origin) at 0.5 uM assessed as competition rate relative to control
BaF3 = test: cells; details: Mus musculus, BaF3, 72 h

C=CC(=O)Nc1cc(Nc2ncc(Cl)c(O[C@@H]3CO[C@H]4[C@@H]3OC[C@H]4OC)n2)ccc1N(C)CCN(C)C
Cmax [1]: 911 ng/mL
inhibition [2]: 23%
inhibition [3]: 36%
inhibition [4]: 92%
inhibition [5]: 111%
inhibition [6]: 115%
inhibition [7]: Active
inhibition [8]: Tde
inhibition [9]: Tde
inhibition [10]: Dde
Activity (U-937 [11]): 64.92%
Activity (U-937 [12]): 13.62%
Activity (U-937 [13]): 21.31%
Activity (U-937 [14]): 15.33%
inhibition [15]: 40%
IC50 (BaF3): 134 nM
